Consider two molecules from patent publication US20130209581A1, “IODINATED ACTIVATED CHARCOAL FOR TREATING SYMPTOMS OF DEPRESSION” (priority 2010, published 2013).

One series has as its system healthy volunteers. The following applies: humans, cited from earlier work.
Series [1] deals with animals suffering from the effects of iodine toxicity. The following applies: animals (chicks) with iodine toxicity; cited from earlier work.
In series [2] the test system is symptoms caused by depression. Put plainly: Self-administration of iodinated activated charcoal and its separate components by one patient with long-standing depression symptoms, with daily symptom recording and a Quality of life questionnaire. It counts as in vivo, human. The settings on record: 90 mg daily in a capsule, after 2 weeks. As for the experimental part: A person, has for some 20 years suffered from many symptoms, including chronic and severe mental fatigue in spite of 12 h sleep per night, psychological burnout, anxiety, lack of concentration, depressive mood, withdrawal from social situations, irritable bowel symptoms with constipation and/or diarrhea, anxiety, heart palpitations, pressure in the chest, reduced stamina and condition and a reduced sex drive. When asked to evaluate their subjective health status using a Quality of life questionnaire with a 1-10 scale where 1 is the worst possible and 10 is absolutely the best, they regularly marked 1 or 2. Their symptoms were interpreted as caused by depression, and they were treated with 5 different types of anti-depressants for a total of 17 years.
Some time ago, they tested the mercury binding substance iodinated activated charcoal (IAC, custom made at PharmaLundensis according to Example 1). They took 1 g per day of IAC for two weeks, and recorded the symptoms they experienced daily, as well as filling in a Quality of life questionnaire. […] They felt better than they had felt for many years.
After these two weeks, they wanted to clarify if the massive improvement in their health was caused by the IAC. […]

In the case of `[Br-].[Na+]` [Sodium bromide, sodium bromide], the no-effect level in the series with healthy volunteers (healthy volunteers) was 4 mg/kg body weight. In addition, the tolerability result with healthy volunteers is “well tolerated”. In addition, the “effect on symptoms of iodine toxicity” value in series [1] is on record as “helps to reverse the symptoms”.
Regarding `II` [elemental iodine], in series [2], the “Quality of life score” value is recorded as “as bad as when they started taking the iodine capsules” and the improvement of symptoms entry is reported as “no improvements”.
